{"source": "patent US20140030313A1", "about": "“TREATMENT OF MENSTRUAL PAIN AND EXCESSIVE MENSTRUAL BLOOD LOSS BY INTRAVAGINAL ADMINISTRATION OF A LOW DOSE OF ANTIFIBRINOLYTIC OR HEMOSTATIC AGENT IN COMBINATION WITH NON-STEROIDAL ANTI-INFLAMMATORY DRUG” (ARSTAT Inc., priority 2011, published 2014)", "origin": "cited, not measured here", "key": {"[1]": {"conditions": "intravaginal tampon at 20% of the oral dose, vs oral capsules"}, "[2]": {"test": "not given", "remark": "listed apart in the source"}, "[3]": {"conditions": "oral, 6 g/day"}, "[4]": {"test": "not given", "remark": "listed apart in the source"}}, "data": [{"compound": "NC[C@H]1CC[C@H](C(=O)O)CC1", "note": "[Lysteda]", "values": [{"measurement": "subjects returned to normal MBL after treatment (mean on-treatment MBL of less than 80 mL)", "setting": "Lysteda NDA medical review", "result": 44, "unit": "%"}, {"measurement": "MBL reduction targets established by the FDA", "setting": "oral, 3900 mg/day regimen", "result": "meets MBL reduction targets established by the FDA"}]}, {"compound": "Cc1cccc(Nc2ccccc2C(=O)O)c1C", "note": "[mefenamic acid]", "values": [{"measurement": "pain relief", "setting": "[1]", "result": "pain relief equivalent to that achieved with the oral capsules"}]}, {"compound": "NC[C@H]1CC[C@H](C(=O)O)CC1", "note": "[tranexamic acid]", "values": [{"measurement": "incidence of postoperative bleeding complications", "setting": "[2]; mouthwash, compared to placebo", "result": "reduce the incidence of postoperative bleeding complications"}, {"measurement": "risk of gastrointestinal adverse events", "setting": "[3]", "result": "increased"}, {"measurement": "plasma concentrations", "setting": "[4]; after a mouth rinse", "result": "below 2 mcg/mL"}, {"measurement": "saliva concentrations, maximum level", "setting": "[4]; after a mouth rinse", "result": "above 200 mcg/mL"}, {"measurement": "time saliva concentration remained at a therapeutic level", "setting": "[4]; after a mouth rinse", "result": "more than two hours"}, {"measurement": "drug in saliva samples", "setting": "[4]; after an oral tablet", "result": "not detected"}, {"measurement": "mean drug plasma concentrations", "setting": "[4]; after an oral tablet", "result": 7, "unit": "µg/mL"}, {"measurement": "difference to placebo in reduction of large stains, small and large clots and changes in serum ferritin levels", "setting": "tranexamic acid vs placebo treatment", "result": "no statistically significant differences"}]}, {"compound": "aprotinin", "values": [{"measurement": "plasma drug levels", "setting": "[2]; locally administered", "result": "without detectable plasma drug levels"}, {"measurement": "postoperative blood loss", "setting": "[2]; locally administered", "result": "Reduction of the postoperative blood loss"}]}]}
